Assay results taken from patent publication US8034810B2, “Arylsulfonamido-substituted hydroxamic acid derivatives” (Novartis AG, priority 1999, dated 2011).
Structures can show the parent of a compound that is named as a salt.

Each molecule was assayed against T1, MMP9 (Homo sapiens, UniProt P14780) (assay: Assay of MMP9, fluorogenic peptide substrate). Settings: activated MMP9 from THP1 cells, 0.5 nM; substrate 25 μM.
T1 construct: endogenous in cells; host or cells: THP1 human monocytic leukemia cells, TPA-stimulated; enzyme purified from culture medium
T1 sequence (P14780 107-707 limits assumed): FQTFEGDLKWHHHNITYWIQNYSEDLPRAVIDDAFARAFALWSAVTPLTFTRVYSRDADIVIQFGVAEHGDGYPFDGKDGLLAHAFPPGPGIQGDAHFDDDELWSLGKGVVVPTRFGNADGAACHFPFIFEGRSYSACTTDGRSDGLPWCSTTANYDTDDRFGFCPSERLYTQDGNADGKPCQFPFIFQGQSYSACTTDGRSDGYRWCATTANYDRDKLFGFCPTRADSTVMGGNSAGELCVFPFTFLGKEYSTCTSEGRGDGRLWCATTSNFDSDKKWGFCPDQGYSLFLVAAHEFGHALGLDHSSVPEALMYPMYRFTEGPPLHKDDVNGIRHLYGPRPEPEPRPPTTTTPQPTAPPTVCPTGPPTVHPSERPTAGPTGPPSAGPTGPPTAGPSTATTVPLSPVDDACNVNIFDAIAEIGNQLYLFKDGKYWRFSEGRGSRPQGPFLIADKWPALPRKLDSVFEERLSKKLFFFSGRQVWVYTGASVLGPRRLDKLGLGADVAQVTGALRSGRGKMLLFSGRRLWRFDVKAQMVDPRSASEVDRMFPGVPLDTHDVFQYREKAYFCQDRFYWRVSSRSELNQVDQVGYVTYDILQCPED
Assay type: biochemical
Method: MMP9 is prepared form the culture medium of THP1 human monocytic leukemia cells treated with TPA. THP1 cells are maintained in a culture of DMEM/F-12 with 10% FCS and stimulated to produce pro-MMP9 with TPA (1 nM) in serum-free medium for 48 h. All purification procedures are carried out at 4° C. The 1 liters of culture medium is concentrated to 100 ml by Centricon (Amicon) and applied to a column (1×8 cm) of gelatin-sepharose (Pharmacia) equilibrated with 50 mM Tris-Cl (pH=8.0), 300 mM NaCl. The fraction containing pro-MMP-9 is eluted with 10% DMSO in 50 mM Tris-Cl (pH=8.0), 300 mM NaCl, then dialyzed against 50 mM Tris-Cl (pH 7.5), 150 mM NaCl. The fraction is concentrated by Centricon and subjected to column chromatography of Sephadex G200 (2×20 cm) equilibrated with 50 mM Tris-Cl (pH=7.5) containing 150 mM NaCl. The purified Pro-MMP9 is stored at −80° C. as a stock and the necessary amount of pro-form is used for activation. Pro-MMP9 is activated with 1 mM aminophenyl mercury acetate (APMA, ICN Pharmaceuticals) in 50 mM Tris-Cl (pH=7.5) containing 150 mM NaCl, 10 mM CaCl2 and 0.05% Brij-35 (MMP Assay Buffer) for 18 h at 37° C., and the APMA is removed by extensive dialysis against MMP Assay Buffer. The activated MMP9 is stored frozen at −80° C. until use.
The activated MMP-9 (82 kDa) is then used to screen compounds. A fluorogenic peptide, 2-N-methylaminobenzoic acid (Nma)-Gly-Pro-Gln-Gly-Leu-Ala-Gly-Gln-Lys-N^ε-(2,4-dinitrophenyl)(Dnp)-NH2 (Peptide Institute, Osaka, Japan) is used as the only substrate in all MMPs assay in this study at 25 μM. Stock solutions of the substrate are prepared in 100% DMSO at a concentration 1.0 mM. Assays are performed in MMP Assay Buffer. The reaction mixture is added in duplicate to appropriate wells of a 96 well microfluor plate and preincubated at 37° for 30 min. The reaction is started by the addition of 0.5 nM of activated MMP9. Stock solutions of each inhibitor are prepared by dissolving in 100% DMSO. Inhibitors are added into the assay mixture from the diluted solution with 100% DMSO prepared from the stock solutions. An equal volume of DMSO is added to controls. The final concentration of DMSO from inhibitor and substrate solutions is 5.0%. The increase of fluorescence is monitored at 460 nm with excitation at 355 nm. A time point on a linear part of the curve is chosen to determine the activity. The inhibition results are expressed as the inhibitor concentration that produce 50% inhibition (IC50) of the activity in the control reaction.

For “2-[(Cyclopropylmethoxy-benzenesulfonyl)-(4-[1,2,4]triazol-1-yl-benzyl)-amino]-N-hydroxyacetamide-hydrochloride salt [Example 82b]”, which IC50 is on record?
The IC50 was 10.6 nM.

`COc1ccc(CN(CC(=O)NO)S(=O)(=O)c2ccc(OCCCCl)cc2)cc1` [Example 68, 2-{[4-(3-chloro-propoxy)-benzenesulfonyl]-(4-methoxy-benzyl)amino}-N-hydroxy-acetamide] was tested. Which IC50 did it give?
The IC50 was 1.2 nM.

How did the IC50 turn out when `C=CCCOc1ccc(S(=O)(=O)N(CC(=O)NO)Cc2ccc(-n3cncn3)cc2)cc1` [Example 79, 2-[(4-but-3-enyloxy-benzenesulfonyl)-(4-[1,2,4]triazol-1-yl-benzyl)-amino]-N-hydroxy-acetamide-hydrochloride salt] was run?
Its IC50 is 0.2 nM.

With `C=CCCOc1ccc(S(=O)(=O)N(CC(=O)NO)Cc2ccc(-n3ccnc3)cc2)cc1` [Example 80, 2-[(4-But-3-enyloxy-benzenesulfonyl)-(4-imidazol-1-yl-benzyl)-amino]-N-hydroxy-acetamide-hydrochloride] as the molecule, how does the IC50 read?
The IC50 was 3.7 nM.

With `C=CCCOc1ccc(S(=O)(=O)N(CC(=O)NO)Cc2ccc(N3CCOCC3)cc2)cc1` [Example 81, 2-[(4-But-3-enyloxy-benzenesulfonyl)-(4-morpholin-4-yl-benzyl)-amino]-N-hydroxy-acetamide-hydrochloride] as the molecule, how does the IC50 read?
The IC50 was 6.3 nM.

With `O=C(CN(Cc1ccc(-n2cncn2)cc1)S(=O)(=O)c1ccc(OCCC2CC2)cc1)NO` [Example 82a] as the molecule, how does the IC50 read?
The IC50 was 17 nM.

How did the IC50 turn out when `O=C(CN(Cc1ccc(-n2cncn2)cc1)S(=O)(=O)c1ccc(OCc2ccoc2)cc1)NO` [Example 82c] was run?
The IC50 was 7.4 nM.

`C=CCCOc1ccc(S(=O)(=O)N(CC(=O)NO)Cc2cccc(F)n2)cc1` [Example 83a, 2-([4-But-3-enyloxy-benzenesulfonyl]-(6-fluoro-pyridine-2-yl)methyl-amino)-N-hydroxyacetamide] was tested. Which IC50 did it give?
The IC50 was 5.6 nM.

With `C=CCCOc1ccc(S(=O)(=O)N(CC(=O)NO)Cc2ccc(N3CCCC3)cc2)cc1` [Example 84a, 2-[(4-But-3-enyloxy-benzenesulfonyl)-(4-(pyrrolidin-1-yl)-benzyl)-amino]-N-hydroxyacetamide-hydrochloride] as the molecule, how does the IC50 read?
The IC50 was 19.8 nM.
